{"source": "paper PMC2994263", "about": "(Chemical biology & drug design, 2010)", "key": {"bradykinin B2 receptor": {"test_system": "bradykinin B2 receptor", "conditions": "bradykinin B2 receptor cDNA transfected cells; ref [10]; cited from earlier work"}, "[1]": {"test_system": "ERK1/2 activation by AngII", "assay": "ERK1/2 phosphorylation", "format": "cell-based, human", "conditions": "10 μM peptide; 10 nM AngII, 5 min; western blot; average of three gels"}, "[2]": {"test_system": "NFκB p65 (Ser536) phosphorylation by AngII", "assay": "NFκB p65 phosphorylation", "format": "cell-based, human", "conditions": "10 nM AngII, 5 min"}, "[3]": {"test_system": "Akt/PKB (Ser473) phosphorylation by AngII via endogenous AT1 receptor", "assay": "Akt/PKB phosphorylation", "format": "cell-based, human", "conditions": "10 nM AngII, 5 min"}, "AT1 receptor [4]": {"test_system": "AT1 receptor", "assay": "Calcium mobilization in AT1-transfected HEK-293 cells", "format": "cell-based, human", "conditions": "10 nM AngII, Fura-2/AM fluorescence"}, "AT1 receptor [5]": {"test_system": "AT1 receptor", "assay": "Phosphoinositide", "format": "cell-based, human"}, "[6]": {"test_system": "mutant AT1 receptor containing the IC2 of the BKB2R", "conditions": "HEK-293 cells, ref [10]; cited from earlier work"}, "AT1 receptor [7]": {"test_system": "AT1 receptor", "conditions": "AT1 cDNA transfected HEK-293 cells; ref [10]; cited from earlier work"}}, "data": [{"substance": "bradykinin", "values": [{"measurement": "Akt phosphorylation (in words)", "setting": "bradykinin B2 receptor", "result": "decreases it"}]}, {"substance": "GRKKRRQRRRPPQGGVHPMKSRLRRT [AT1 IC2 peptide]", "values": [{"measurement": "effect on ERK1/2 activation by AngII (in words)", "setting": "[1]", "result": "no effect"}]}, {"substance": "GRKKRRQRRRPPQGGVKTMSMGRMRG [control peptide]", "values": [{"measurement": "effect on ERK1/2 activation by AngII (in words)", "setting": "[1]", "result": "neither the control peptide nor the IC2 peptide at 10 μM affected the activation of this MAP kinase by AngII"}, {"measurement": "effect on AngII dependent NFκB activation / p65 phosphorylation (in words)", "setting": "[2]; 10 μM peptide", "result": "no inhibitory effect"}, {"measurement": "effect on AngII induced Akt phosphorylation (in words)", "setting": "[3]; 10 μM peptide", "result": "no effect"}, {"measurement": "effect on AngII promoted Ca2+ entry (in words)", "setting": "AT1 receptor [4]; 10 μM peptide", "result": "no effect"}, {"measurement": "effect on AngII induced PI turnover (in words)", "setting": "AT1 receptor [5]; 10 μM peptide, 30 min before 10 nM AngII", "result": "unhindered"}]}, {"substance": "Angiotensin II (DRVYIHPF; Angiotensin-2; UniProt P01019 25-32, looked up) [AngII]", "values": [{"measurement": "pAkt (in words)", "setting": "[6]", "result": "decreased pAkt"}, {"measurement": "Ser536 phosphorylation of p65 by AngII (in words)", "setting": "[2]; no peptide", "result": "clearly enhanced"}, {"measurement": "activation of Akt/PKB by AngII (in words)", "setting": "[3]; no peptide", "result": "sizable activation of Akt/PKB"}, {"measurement": "calcium influx caused by AngII (in words)", "setting": "AT1 receptor [4]; no peptide", "result": "strong calcium influx"}, {"measurement": "Akt phosphorylation (in words)", "setting": "AT1 receptor [7]", "result": "increases Akt phosphorylation"}, {"measurement": "PI turnover induced by AngII (in words)", "setting": "AT1 receptor [5]; 10 nM AngII, 30 min at 37°C, no peptide", "result": "induced a marked PI turnover"}]}]}
